Read-outs that look alike come from different tables or passages of the source. Each block holds one compound with its values, some of them ahead of it.
Columns and labels:
[1] = cited from earlier work
[2] = high permeability, low solubility; cited from earlier work
[3] = clinical; conditions: human, in vivo, 150 mg, AUC0–24
[4] = Unbound vismodegib plasma concentration; assay type: in vivo, human; conditions: for unbound vismodegib concentrations: after daily dosing 150 mg, mean ± SD
[5] = clinical; conditions: human, in vivo, 150 mg, AUC0–168
[6] = test system: basal cell carcinoma (BCC); conditions: oral 150 mg daily, cited from earlier work
[7] = test system: advanced solid tumors; experiment: Anticancer activity by RECIST 1.1 in advanced solid tumor patients; assay type: in vivo, human
[8] = Adverse events at least possibly related to vismodegib during daily dosing; assay type: in vivo, human
[9] = 46 patients evaluable for response, 150 mg daily
[10] = all patients during daily dosing (both groups)

SMILES: CS(=O)(=O)CCNCc1ccc(-c2ccc3ncnc(Nc4ccc(OCc5cccc(F)c5)c(Cl)c4)c3c2)o1 [lapatinib]
increase in exposure (area-under-the-curve; AUC) with food [1]: 150%

AUC(0-t) [3]: 239 µg·h/mL
unbound vismodegib concentrations ([4]; fasting group): 79 ± 53 ng/mL
unbound vismodegib concentrations ([4]; fed group): 103 ± 49 ng/mL
Steady-state unbound drug concentrations as share of total concentrations ([4]; daily dosing, fasting and fed groups): less than 1%
AUC(0-t) [5]: 417 µg·h/mL
SMILES: CS(=O)(=O)c1ccc(C(=O)Nc2ccc(Cl)c(-c3ccccn3)c2)c(Cl)c1 [vismodegib]
Biopharmaceutics Classification System class [2]: 2
response rate ([6]; locally advanced BCC): 43%
response rate ([6]; metastatic BCC): 30%
objective responses (RECIST 1.1) [7, 9]: no objective responses
patients with stable disease [7, 9]: Nine
range of duration of stable disease ([7]; patients with stable disease, longest in a patient with BCC): 8 to 152 weeks
Alopecia, All grades (%) ([8]; Fasting (n=31), 150 mg daily): 4 (13) n (%)
Anorexia, All grades (%) ([8]; Fasting (n=31), 150 mg daily): 9 (29) n (%)
Diarrhea, All grades (%) ([8]; Fasting (n=31), 150 mg daily): 4 (13) n (%)
Dizziness, All grades (%) ([8]; Fasting (n=31), 150 mg daily): 3 (10) n (%)
Dysgeusia, All grades (%) ([8]; Fasting (n=31), 150 mg daily): 8 (26) n (%)
Dyspnea, All grades (%) ([8]; Fasting (n=31), 150 mg daily): 3 (10) n (%)
Fatigue, All grades (%) ([8]; Fasting (n=31), 150 mg daily): 11 (35) n (%)
Fatigue, Grade 3 (%) ([8]; Fasting (n=31), 150 mg daily): 2 (6) n (%)
Hyperglycemia, All grades (%) ([8]; Fasting (n=31), 150 mg daily): 2 (6) n (%)
Hyperkalemia, All grades (%) ([8]; Fasting (n=31), 150 mg daily): 1 (3) n (%)
Hypophosphatemia, All grades (%) ([8]; Fasting (n=31), 150 mg daily): 3 (10) n (%)
Hypophosphatemia, Grade 3 (%) ([8]; Fasting (n=31), 150 mg daily): 1 (3) n (%)
Myalgia, All grades (%) ([8]; Fasting (n=31), 150 mg daily): 6 (19) n (%)
Nausea, All grades (%) ([8]; Fasting (n=31), 150 mg daily): 10 (32) n (%)
Vomiting, All grades (%) ([8]; Fasting (n=31), 150 mg daily): 4 (13) n (%)
Weight loss, All grades (%) ([8]; Fasting (n=31), 150 mg daily): 5 (16) n (%)
Alopecia, All grades (%) ([8]; Fed (n=30), 150 mg daily): 1 (3) n (%)
Anorexia, All grades (%) ([8]; Fed (n=30), 150 mg daily): 13 (43) n (%)
Diarrhea, All grades (%) ([8]; Fed (n=30), 150 mg daily): 3 (10) n (%)
Dizziness, All grades (%) ([8]; Fed (n=30), 150 mg daily): 2 (7) n (%)
Dysgeusia, All grades (%) ([8]; Fed (n=30), 150 mg daily): 13 (43) n (%)
Fatigue, All grades (%) ([8]; Fed (n=30), 150 mg daily): 11 (37) n (%)
Fatigue, Grade 3 (%) ([8]; Fed (n=30), 150 mg daily): 1 (3) n (%)
Hyperglycemia, All grades (%) ([8]; Fed (n=30), 150 mg daily): 1 (3) n (%)
Hyperkalemia, All grades (%) ([8]; Fed (n=30), 150 mg daily): 1 (3) n (%)
Hyperkalemia, Grade 3 (%) ([8]; Fed (n=30), 150 mg daily): 1 (3) n (%)
Myalgia, All grades (%) ([8]; Fed (n=30), 150 mg daily): 7 (23) n (%)
Nausea, All grades (%) ([8]; Fed (n=30), 150 mg daily): 9 (30) n (%)
Neutropenia, All grades (%) ([8]; Fed (n=30), 150 mg daily): 1 (3) n (%)
Neutropenia, Grade 3 (%) ([8]; Fed (n=30), 150 mg daily): 1 (3) n (%)
Vomiting, All grades (%) ([8]; Fed (n=30), 150 mg daily): 3 (10) n (%)
Weight loss, All grades (%) ([8]; Fed (n=30), 150 mg daily): 2 (7) n (%)
anorexia, any grade, frequency [8, 10]: 36%
dysgeusia, any grade, frequency [8, 10]: 34%
fatigue, Grade 3, frequency [8, 10]: 5%
fatigue, any grade, frequency [8, 10]: 36%
hyperkalemia, Grade 3, frequency [8, 10]: 2%
hypophosphatemia, Grade 3, frequency [8, 10]: 2%
nausea, any grade, frequency [8, 10]: 31%
neutropenia, Grade 3, frequency [8, 10]: 2%

Source: article PMC3674138 (Clinical cancer research : an official journal of the …, 2013)
